# Experimental data from patent US9096615B2, “Bridged bicyclic amino thiazine dioxide compounds as inhibitors of beta-secretase and methods of use thereof” (AMGEN INC., priority 2013, dated 2015).
# Where two headings read alike, the source gives them in different places.
# What was measured:
# [1] = system: Aβ40 in conditioned medium of cells stably expressing Amyloid Precursor Protein (APP); assay: In vitro BACE cell-based assay (HEK cell assay, Aβ40 sandwich ELISA); settings: Homo sapiens, HEK293; average IC50; read-out: BACE1 cell assay IC50
# Outline: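 APP-stable cells were cultured 24 h at 37 °C, then given compound as 10-point dose-response (top 100 μM or 10 μM; 0.1% DMSO final) for 24 h. Aβ40 in conditioned medium was measured by sandwich ELISA (pAb40 capture, biotinylated 6E10 detection, Eu time-resolved fluorescence). IC50 from percent inhibition versus concentration.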
# [2] = system: Abeta 40; assay: In vivo inhibition of beta-secretase: percent Abeta 40 reduction in CSF and brain; design: species or system rat; settings: after 4 hrs; for inhibition in vivo at 10 mg/kg: 10 mpk
# Outline: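 Test compound was given by oral gavage in 2% HPMC, 1% Tween80, pH 2.2 (e.g., 30 mg/kg to male Sprague Dawley rats), or IV in 5% EtOH/45% propylene glycol in 5% dextrose. Four hours later, Abeta40 in CSF and in brain homogenate (DEA or Triton extraction) was measured by ECL sandwich ELISA (4G8 capture, Fab40 detection). Reduction is expressed relative to vehicle-treated animals.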
# [3] = Abeta 40, rat CSF, read-out: % reduction of rat CSF levels at 10 pmk
# [4] = Abeta 40, rat brain, read-out: % reduction of rat brain levels at 10 mpk
SMILES,IC50 [1] [nM],"inhibition in vivo at 10 mg/kg [2, 3] [%]","inhibition in vivo at 10 mg/kg [2, 4] [%]","% reduction of rat CSF levels (3 mpk) ([2]; Abeta 40, rat CSF, 3 mpk)","% reduction of rat brain levels (3 mpk) ([2]; Abeta 40, rat brain, 3 mpk)"
"COc1cnc2c(Nc3ccc(F)c([C@@]4(C)N=C(N)[C@@]5(CF)CC[C@@H]4S5(=O)=O)c3)nccc2n1 [Example 41, N-(3-((1S,2R,5R)-4-amino-5-(fluoromethyl)-2-methyl-8,8-dioxido-8-thia-3-azabicyclo[3.2.1]oct-3-en-2-yl)-4-fluorophenyl)-2-methoxypyrido[3,4-b]pyrazin-5-amine]",15,76,62,,
"COc1cnc(C(=O)Nc2ccc(F)c([C@@]3(C)N=C(N)[C@@]4(CF)CC[C@@H]3S4(=O)=O)c2)c(C)n1 [Example 76, N-(3-((1S,2R,5R)-4-amino-5-(fluoromethyl)-2-methyl-8,8-dioxido-8-thia-3-azabicyclo[3.2.1]oct-3-en-2-yl)-4-fluorophenyl)-5-methoxy-3-methyl-2-pyrazinecarboxamide]",8,76,66,,
"Cc1cc(C#N)cnc1C(=O)Nc1ccc(F)c([C@@]2(C)N=C(N)[C@@]3(CF)CC[C@@H]2S3(=O)=O)c1 [Example 96, N-(3-((1S,2R,5R)-4-amino-5-(fluoromethyl)-2-methyl-8,8-dioxido-8-thia-3-azabicyclo[3.2.1]oct-3-en-2-yl)-4-fluorophenyl)-5-cyano-3-methyl-2-pyridinecarboxamide]",2,,,60 (3 mpk) %,39 (3 mpk) %
"COc1cnc(C(=O)Nc2ccc(F)c([C@@]3(C)N=C(N)[C@@]4(C)CC[C@@H]3S4(=O)=O)c2)cn1 [Example 61, N-(3-((1S,2R,5R)-4-amino-2,5-dimethyl-8,8-dioxido-8-thia-3-azabicyclo[3.2.1]oct-3-en-2-yl)-4-fluorophenyl)-5-methoxy-2-pyrazinecarboxamide]",2,80,79,,
"Cc1cc(Cl)cnc1C(=O)Nc1ccc(F)c([C@@]2(C)N=C(N)[C@@]3(CF)CC[C@@H]2S3(=O)=O)c1 [Example 88, N-(3-((1S,2R,5R)-4-amino-5-(fluoromethyl)-2-methyl-8,8-dioxido-8-thia-3-azabicyclo[3.2.1]oct-3-en-2-yl)-4-fluorophenyl)-5-chloro-3-methyl-2-pyridinecarboxamide]",5,77,70,,
